# According to patent publication US11707065B2, “Method for biofilm dispersal” (MC (US) 3 LLC, priority 2017, dated 2023):
# Columns and labels:
# [1] = tested on: Desulfovibrio vulgaris (ATCC 29579) biofilm; test: Biofilm dispersal assay, crystal violet staining of remaining biofilm in 96-well plates; assay type: cell-based; details: D. vulgaris
# Method: (§1) Cultures of Desulfovibrio vulgaris (ATCC 29579) and Desulfovibrio desulfuricans (DSM 12129) were prepared in Modified Baar's medium at 30 C under anaerobic conditions. The bacterial cultures were then used to prepare bacterial suspensions in fresh Modified Baar's medium to a cell density of 0.1 (Table 2 to 6) or 0.05 (Table 1) at 600 nm. The appropriate bacterial suspension was used to fill 96-well plates and the plates were incubated in an anaerobic glove box for 24 h (Table 2 to 6) or 48 h (Table 1) at 30° C. to develop biofilms. Stocks of D-mannose (2.85 M, Alfa Aesar, Cat #A10842), 2DG (1.22 M, Alfa Aesar, Cat #AAAL07338-06), αMM (1.22 M, Acros Organics, Cat #AC229251000), and αMG (1.22 M, Alfa Aesar, Cat #AAA12484-22) were prepared in sterile distilled water and filtered through a 0.22 μm filter. For biofilm dispersal assay, the planktonic cells were removed, and the plates were washed with 150 μL of 1× of phosphate buffered saline (pH 7.4); D-mannose, 2DG, αMM, and αMG were added, the volume was adjusted with 1×PBS, pH 7.4 to 150 μL, and the plates were incubated in the anaerobic glove box for 2 h (Table 1, 2, 4, 5, 6) or 14 h (Table 3) for biofilm dispersal studies. After the treatment, supernatants were discarded; the wells were washed three times with deionized water (DW) by dipping the plates into a 1 L solution of DW, and the plates were dried via a piece of paper towel by patting. 300 μL of 0.1% crystal violet was added to each well, the plates were incubated for 20 minutes at room temperature (25° C.), and the staining solution was discarded. The plates were washed three times with DW by dipping the plates into a 1 L solution of DW, then 300 μL of 95% ethanol was added to each well, and the plates were soaked for 5 min to dissolve the crystal violet. Total biofilm was measured spectrophotometrically at 540 nm using a Sunrise microplate reader (Tecan, Austria Gesellschaft, Salzburg, Austria).
# [2] = tested on: Desulfovibrio desulfuricans (DSM 12129) biofilm; test: as above; assay type: cell-based; details: D. desulfuricans, 2 h treatment, 24 h biofilm, negative control 0.88
# Method: as §1
# [3] = 30 mM, 2 h treatment, 24 h biofilm (cell density 0.1), negative control per table
# [4] = 100 mM, 2 h treatment, 24 h biofilm (cell density 0.1), negative control per table
# [5] = 500 mM, 2 h treatment, 24 h biofilm (cell density 0.1), negative control per table
SMILES,"Remaining biofilm OD540 [1, 3]","Remaining biofilm OD540 [1, 4]","Remaining biofilm OD540 [1, 5]",Remaining biofilm OD540 (average) ([2]; 30 mM),Remaining biofilm OD540 (average) ([2]; 100 mM),Remaining biofilm OD540 (average) ([2]; 500 mM),"Remaining biofilm OD540 ([1]; 1 mM, 14 h treatment, 24 h biofilm, negative control 0.26)","Remaining biofilm OD540 ([1]; 5 mM, 14 h treatment, 24 h biofilm, negative control 0.26)","Remaining biofilm OD540 ([1]; 10 mM, 14 h treatment, 24 h biofilm, negative control 0.26)"
"CO[C@H]1O[C@H](CO)[C@@H](O)[C@H](O)[C@H]1O [αMG, methyl α-D-glucopyranoside]",0.39,0.33,0.45,0.75,0.62,0.55,–,–,–
"O=CC[C@@H](O)[C@H](O)[C@H](O)CO [2DG, 2-deoxy-D-glucose]",0.24,0.17,0.18,0.59,0.49,0.41,0.24,0.21,0.16
"CO[C@H]1O[C@H](CO)[C@@H](O)[C@H](O)[C@@H]1O [αMM, methyl α-D-mannopyranoside]",0.42,0.40,0.23,0.60,0.53,0.50,–,–,–
